Data taken from article PMC9519446, “Discovery of an Orally Active Benzoxaborole Prodrug Effective in the Treatment of Chagas Disease in Non-human Primates” (Nature microbiology, 2022).
“And” between values parts separate entries of the source, which are not always exact repeats. Identical values can stand only once.

Assay: NHP health screening: hematology (CBC)
Assay type: in vivo, rhesus macaques (Macaca mulatta)
[1] = treated female macaques, post-dosing bleed, Mean
[2] = treated macaques, end of study bleed, individual animals
[3] = treated macaques, mid-dosing bleed, individual animals

Description: Under light-anesthesia/sedation, peripheral blood samples were collected from each animal prior to treatment and at 7 time points following. Blood analysis (CBC and serum chemistry assays) and physical exams to evaluate the health of the study animals were performed on each animal prior to the beginning of the study and also at three time points during the treatment protocol (see Supplementary data).

SMILES: Cc1c(C(=O)N[C@H](C(=O)OCC2CCOCC2)C(C)C)ccc2c1B(O)OC2 [AN15368]
- Mcv [1]: 73.5333 fL
- Mono [1]: 0.2561 10^3/µL
- Mpv [1]: 7.553 fL
- Neut [1]: 2.507 10^3/µL
- Plt [1]: 330.353 10^3/µL
- Rbc [1]: 5.521 10^6/µL
- Rdw [1]: 12.4778%
- Wbc [1]: 5.361 10^3/µL
- Baso [2]: 0.01 10^3/µL and 0.02 10^3/µL and 0 10^3/µL
- Eos [2]: 0.07 10^3/µL and 0.12 10^3/µL and 0.02 10^3/µL and 0.06 10^3/µL and 0.17 10^3/µL and 0.01 10^3/µL and 0.05 10^3/µL and 0.21 10^3/µL and 0.16 10^3/µL and 0.03 10^3/µL
- Hct [2]: 39.5% and 45.3% and 41.2% and 45.7% and 43.1% and 42.5% and 44.2% and 44% and 41.8% and 40.4% and 42.9% and 44.8% and 39.8%
- Hgb [2]: 11.9 G/Dl and 14.7 G/Dl and 12.8 G/Dl and 14.6 G/Dl and 13.3 G/Dl and 13.2 G/Dl and 13.6 G/Dl and 13.7 G/Dl and 13.1 G/Dl and 13 G/Dl and 12.9 G/Dl and 13.4 G/Dl and 12.3 G/Dl
- Lymp [2]: 1.75 10^3/µL and 3.93 10^3/µL and 1.62 10^3/µL and 3.5 10^3/µL and 2.42 10^3/µL and 0.76 10^3/µL and 1.4 10^3/µL and 2.46 10^3/µL and 2.32 10^3/µL and 1.59 10^3/µL and 0.91 10^3/µL and 2.37 10^3/µL and 1.53 10^3/µL and 1.63 10^3/µL
- Mch [2]: 21.9 Pgs and 22.2 Pgs and 23.6 Pgs and 24.2 Pgs and 22.7 Pgs and 21.7 Pgs and 21.5 Pgs and 23.8 Pgs and 22.4 Pgs and 22.3 Pgs and 22.5 Pgs and 22.9 Pgs
- Mchc [2]: 30.1 G/Dl and 32.5 G/Dl and 31.1 G/Dl and 31.9 G/Dl and 30.9 G/Dl and 30.8 G/Dl and 29.6 G/Dl and 31.6 G/Dl and 32.2 G/Dl and 29.9 G/Dl
- Mcv [2]: 72.3 fL and 68.2 fL and 75.6 fL and 75.7 fL and 73.4 fL and 69.9 fL and 73.5 fL and 73.1 fL and 75.2 fL and 69.2 fL and 74.1 fL and 75.4 fL and 74.4 fL
- Mono [2]: 0.25 10^3/µL and 0.23 10^3/µL and 0.17 10^3/µL and 0.37 10^3/µL and 0.36 10^3/µL and 0.48 10^3/µL and 0.3 10^3/µL and 0.21 10^3/µL and 0.2 10^3/µL and 0.44 10^3/µL and 0.26 10^3/µL and 0.29 10^3/µL and 0.12 10^3/µL
- Mpv [2]: 6.3 fL and 7.4 fL and 8.1 fL and 9.7 fL and 8.4 fL and 7 fL and 6.5 fL and 7.9 fL and 7.2 fL and 6.9 fL and 7.3 fL and 6.4 fL
- Neut [2]: 1.44 10^3/µL and 1.12 10^3/µL and 1.09 10^3/µL and 1.69 10^3/µL and 4.26 10^3/µL and 8.57 10^3/µL and 5.95 10^3/µL and 2.2 10^3/µL and 1.94 10^3/µL and 1.95 10^3/µL and 8.94 10^3/µL and 3.94 10^3/µL and 6.95 10^3/µL and 1.75 10^3/µL
- Plt [2]: 418 10^3/µL and 361 10^3/µL and 262 10^3/µL and 246 10^3/µL and 276 10^3/µL and 221 10^3/µL and 490 10^3/µL and 360 10^3/µL and 283 10^3/µL and 257 10^3/µL and 336 10^3/µL and 367 10^3/µL and 446 10^3/µL and 324 10^3/µL
- Rbc [2]: 5.46 10^6/µL and 6.64 10^6/µL and 5.45 10^6/µL and 6.04 10^6/µL and 5.87 10^6/µL and 6.08 10^6/µL and 6.01 10^6/µL and 6.02 10^6/µL and 6.11 10^6/µL and 5.56 10^6/µL and 5.84 10^6/µL and 5.79 10^6/µL and 5.94 10^6/µL and 5.35 10^6/µL
- Rdw [2]: 13.4% and 11.4% and 12.4% and 11.5% and 12.2% and 12.3% and 12.8% and 11.8%
- Wbc [2]: 3.51 10^3/µL and 5.42 10^3/µL and 2.91 10^3/µL and 5.63 10^3/µL and 7.21 10^3/µL and 9.83 10^3/µL and 7.73 10^3/µL and 5.19 10^3/µL and 4.54 10^3/µL and 3.78 10^3/µL and 10.31 10^3/µL and 6.74 10^3/µL and 8.9 10^3/µL and 3.54 10^3/µL
- Baso [3]: 0.01 10^3/µL and 0.02 10^3/µL and 0 10^3/µL
- Eos [3]: 0.07 10^3/µL and 0.09 10^3/µL and 0.04 10^3/µL and 0.06 10^3/µL and 0.16 10^3/µL and 0.08 10^3/µL and 0.05 10^3/µL and 0.18 10^3/µL and 0.19 10^3/µL and 0.2 10^3/µL and 0.02 10^3/µL and 0.26 10^3/µL
- Hct [3]: 41.2% and 42.7% and 40.7% and 46.1% and 39.7% and 43.4% and 40% and 40.3% and 41.5% and 41.9% and 42% and 39.6% and 43.3% and 43.7% and 42.6% and 38.2% and 38.9% and 39.9%
- Hgb [3]: 13.1 G/Dl and 14.2 G/Dl and 12.7 G/Dl and 14.6 G/Dl and 12.8 G/Dl and 13.9 G/Dl and 13.4 G/Dl and 13.5 G/Dl and 12.5 G/Dl and 12.6 G/Dl and 14 G/Dl and 13.6 G/Dl and 11.9 G/Dl and 12.9 G/Dl
